# Data published in patent US11622951B2, “Alpha-aminoadipate for treatment of vision loss and restoring sight” (The Schepens Eye Research Institute, Inc., priority 2013, dated 2023).
# “Also recorded” adds a separate entry of the source.
# Tests used:
# retinal neurons = assay: Retinal neuron morphology and lamina structure after injection (electron microscopy, Nissl, recoverin, syntaxin); type: in vivo, mouse
# Method: Mice were anesthetized by intraperitoneal injection of ketamine (62.5 mg/kg) and xylazine (12.5 mg/kg) and transcardially perfused with phosphate buffered saline (PBS) followed by 4% paraformaldehyde in PBS. Retinal flat-mounts or transverse retinal sections (14 μm) were preblocked with PBS containing 3% bovine serum albumin (Sigma-Aldrich, St. Louis, Mo.) and 0.3% Triton X (Sigma-Aldrich) and incubated, first, with primary antibody overnight, and then with secondary antibody for 1 hour at room temperature. The following antibodies were used: Cy3-conjugated monoclonal antibody against GFAP (1:1000; Sigma), Brn-3b (1:200; Santa Cruz Biotechnology; Santa Cruz, Calif.), mouse anti-rhodopsin (1:4000; Rho1D4), chick anti-cone-opsin (1:300), and Cy-2, Cy-3 or Cy-5-conjugated secondary antibody (Jackson ImmunoResearch; West Grove, Pa.). Assessment of morphological integration were quantified by counting EGFP+ cells located outside of transplanted cell clusters in retinal whole-mounts. Statistical significance was determined by either the two tailed student t test or ANOVA.
# Mice were sacrificed 3 days after receiving the injection of α-AA (1 μg/μl) or saline as controls by injection of overdose of ketamine/xylazine followed by cervical dislocation, and the eyeballs were dissected, fixed with Karnovsky's fixative (pH 7.4) for 24 h. The quadrants of the eyes that received subretinal injection were dissected and embedded in Epon-Araldite. Semi-thin sections (1-2 μm) were stained with phenylenediamine phase staining. The sections were examined and photographed with a transmission electron microscope (EM410; Philips; Eindhoven, The Netherlands). Ten randomly selected retinal sections of each eye were photographed at 1900× magnification, and all Müller glial nuclei in the photomicrograph were counted.
# Retinal sections were examined under electron microscopy, in which Müller glia were identified by their characteristic angular nuclei, dense chromatin and dark perinuclear cytoplasm (FIG. 1e-h). […]
# retinal ganglion cells = assay: Cell-attached patch clamp of retinal ganglion cells from Rho-/- mice; design: species or system mouse; settings: retinas extracted from treated eyes of Rho-/- mice, cells responding/recorded
# Method: Mice carrying rhodopsin deficiency (Rho^−/−) were used to determine if injection of alpha-aminoadipate (αAA) is sufficient to induce neuroregeneration from endogenous retinal progenitors, e.g., Muller cells, leading to preservation and restoration of photoreceptor cell function. Light-evoked photoreceptor responses and retinal functions in Rho^−/− mice that received αAA or saline injection were assessed using ERGS and whole cell-attached patch clamp. […] Consistent with the presence of ERG b-waves in αAA-treated eye, light-elicited spiking responses in some of the ganglion cells were observed (n=4/9) (FIG. 15 A, B). Similar to findings from other types of retinal degenerative mice, an elevated level of background firing in these cells, likely due to the changes in the excitability of the presynaptic network formed by bipolar cells and amacrine cells, were also observed. In contrast, no light-elicited responses in ganglion cells were recorded from the saline-injected eyes (n=4/4, FIG. 14C). […] Additional vision and optomotor tests known in the art are conducted to assess vision restoration, such as the water maze test. Thus, a single intraocular injection of αAA may be sufficient to improve vision, in part by increasing the number of cones.
structure (smiles),measurement,setting,value
"NC(CCCC(=O)O)C(=O)O (stereo not drawn) [α-AA, alpha-aminoadipate]",retinal neuron morphology (electron microscopy),retinal neurons; 3 days after subretinal injection,No abnormality in retinal neuron morphology
same,"morphology and lamina structure (recoverin, syntaxin immunolabeling)","retinal neurons; day 3 after injection, vs saline-injected controls",No apparent changes; also recorded: No significant difference
same,neuronal toxicity,"retinal neurons; mouse, in vivo",No neuronal toxicity
same,ganglion cells with light-elicited spiking responses,retinal ganglion cells,4/9
